Results from patent US12473305B2, “Pyrazole boronic acid compound, pharmaceutical composition containing same, and uses thereof” (BEIJING SONGRUN PHARMACEUTICAL TECHNOLOGY CO., LTD., priority 2020, dated 2025).
Where a name gives a salt, the structure may show the parent alone.

Legend:
[1] = test system: non-small cell lung cancer cell line A549; test: CellTiter-Glo tumor cell proliferation, A549; type: cell-based, human; settings: 72 h; for inhibition at 1 µM / inhibition at 10 µM: read-out: Inhibition rate A549 (%); for IC50: CellTiter-Glo
Method: (§1) The effect of compounds on tumor cell proliferation was detected by CellTiter-Glo method. Human melanoma cell line A375, non-small cell lung cancer cell line A549, human lung adenocarcinoma cell line H1299, colorectal cancer cell line HCT116, liver cancer cell line HepG2 and gastric cancer cell line MGC80-3 were cultured in vitro. The cells were collected after growing to the logarithmic growth phase, centrifuged at 1000 rpm for 5 min, and suspended in an appropriate amount of medium after discarding the supernatant, and the cell concentration was adjusted to 2×10^4/mL. The cell suspension was inoculated onto the 384-well cell culture plate, with 50 μL per well. After being cultured in a cell incubator (37° C., 5% CO2) for 24 h, 5 μL of drug diluted by the cell culture medium was added into each well for the treatment group. Each drug was provided in triplicate. After 72 h incubation in the incubator, 20 μL of CellTiter-Glo was added into each well, and the relative luminescence unit (RLU) was measured with Multimode Microplate Reader Varioskan Flash (Thermo Scientific, USA) after placed at 37° C. for 20 min, and compared with the RLU of the control group. SigmaPlot 10.0 software was used to calculate the inhibition rate and IC50 value.

[2] = test system: Human melanoma cell line A375; test: CellTiter-Glo tumor cell proliferation, A375; type: cell-based; settings: 72 h; for inhibition at 1 µM / inhibition at 10 µM: read-out: Inhibition rate A375 (%); for IC50: CellTiter-Glo
Method: as §1

[3] = test system: colorectal cancer cell line HCT116; test: CellTiter-Glo tumor cell proliferation, HCT116; type: cell-based, human; settings: 72 h; for inhibition at 1 µM / inhibition at 10 µM: read-out: Inhibition rate HCT116 (%); for IC50: CellTiter-Glo
Method: as §1

SMILES | inhibition at 1 µM ([1]; Homo sapiens, A549) [%] | inhibition at 10 µM ([1]; Homo sapiens, A549) [%] | inhibition at 1 µM ([2]; Homo sapiens, A-375) [%] | inhibition at 10 µM ([2]; Homo sapiens, A-375) [%] | inhibition at 1 µM ([3]; Homo sapiens, HCT-116) [%] | inhibition at 10 µM ([3]; Homo sapiens, HCT-116) [%] | IC50 [1] [µM] | IC50 [2] [µM] | IC50 [3] [µM] | IC50 ([1]; Homo sapiens, A549) [µM] | IC50 ([2]; Homo sapiens, A-375) [µM] | IC50 ([3]; Homo sapiens, HCT-116) [µM]
CC(C)C[C@H](NC(=O)Cn1nc(-c2ccccc2OS(=O)(=O)c2cccc(C(F)(F)F)c2)cc1-c1ccc(F)cc1)B(O)O [Compound 16, (R)-(1-(2-(5-(4-fluorophenyl)-3-(2-(((3-(trifluoromethyl)phenyl)sulfonyl)oxy)phenyl)-1H-pyrazol-1-yl)acetamido)-3-methylbutyl)boronic acid] | 1.6 | 36.9 | 14.2 | 91.9 | 8.3 | 93.8 |  |  |  |  |  | 
CC(C)C[C@H](NC(=O)Cn1nc(-c2ccccc2OS(=O)(=O)c2cccc(C(F)(F)F)c2)cc1-c1ccc(Cl)cc1)B(O)O [Compound 17, (R)-(1-(2-(5-(4-chlorophenyl)-3-(2-(((3-(trifluoromethyl)phenyl)sulfonyl)oxy)phenyl)-1H-pyrazol-1-yl)acetamido)-3-methylbutyl)boronic acid] | 0.3 | 1.9 | 8.3 | 56.1 | 13.6 | 70.6 |  |  |  |  |  | 
CC(C)C[C@H](NC(=O)Cn1nc(-c2ccccc2OS(=O)(=O)c2cccc(C(F)(F)F)c2)cc1-c1ccc(C#N)cc1)B(O)O [Compound 18, (R)-(1-(2-(5-(4-cyanophenyl)-3-(2-(((3-(trifluoromethyl)phenyl)sulfonyl)oxy)phenyl)-1H-pyrazol-1-yl)acetamido)-3-methylbutyl)boronic acid] | 7.1 | 29 | 4.6 | 81.1 | 5.5 | 89.7 |  |  |  |  |  | 
CC(C)C[C@H](NC(=O)Cn1nc(-c2ccccc2OS(=O)(=O)c2cccc(C(F)(F)F)c2)cc1-c1ccc(S(C)(=O)=O)cc1)B(O)O [Compound 19, (R)-(1-(2-(5-(4-(methylsulfonyl)phenyl)-3-(2-(((3-(trifluoromethyl)phenyl)sulfonyl)oxy)phenyl)-1H-pyrazol-1-yl)acetamido)-3-methylbutyl)boronic acid] | 8.7 | 7.9 | 4.1 | 45.2 | 14.5 | 33.9 |  |  |  |  |  | 
Cc1ccc(-c2cc(-c3ccccc3OS(=O)(=O)c3cccc(C(F)(F)F)c3)nn2CC(=O)N[C@H](B(O)O)C(C)C)cc1 [Compound 20, (R)-(1-(2-(5-(4-methyl-phenyl)-3-(2-(((3-trifluoromethylphenyl)sulfonyl)oxy)phenyl)-1H-pyrazol-1-yl)acetamido)isobutyl)boronic acid] | 1.2 | 4.2 | 11.5 | 61.9 | 9.2 | 85.1 |  |  |  |  |  | 
COc1ccc(-c2cc(-c3ccccc3OS(=O)(=O)c3cccc(C(F)(F)F)c3)nn2CC(=O)N[C@@H](CC(C)C)B(O)O)cc1 [Compound 21, (R)-(1-(2-(5-(4-methoxyphenyl)-3-(2-(((3-(trifluoromethyl)phenyl)sulfonyl)oxy)phenyl)-1H-pyrazol-1-yl)acetamido)-3-methylbutyl)boronic acid] | 4.4 | 6.4 | 2 | 44.1 | 11.4 | 62.2 |  |  |  |  |  | 
CC(C)C[C@H](NC(=O)Cn1nc(-c2ccccc2OS(=O)(=O)c2cccc(C(F)(F)F)c2)cc1-c1ccc(-c2ccccc2)cc1)B(O)O [Compound 22, (R)-(1-(2-(5-([1,1′-biphenyl]-4-yl)-3-(2-(((3-(trifluoromethyl)phenyl)sulfonyl)oxy)phenyl)-1H-pyrazol-1-yl)acetamido)-3-methylbutyl)boronic acid] | 3.7 | 16.1 | 10.9 | 39.1 | 3.9 | 18.1 |  |  |  |  |  | 
CC(C)C[C@H](NC(=O)Cn1nc(-c2ccccc2OS(=O)(=O)c2cccc(C(F)(F)F)c2)cc1-c1ccc(OCc2ccccc2)cc1)B(O)O [Compound 23, (R)-(1-(2-(5-(4-(benzyloxy)phenyl)-3-(2-(((3-(trifluoromethyl)phenyl)sulfonyl)oxy)phenyl)-1H-pyrazol-1-yl)acetamido)-3-methylbutyl)boronic acid] | 7.4 | 63.4 | 5.7 | 77 | 2.6 | 55.6 |  |  |  |  |  | 
CC(C)C[C@H](NC(=O)Cn1nc(-c2ccccc2OS(=O)(=O)c2cccc(C(F)(F)F)c2)cc1-c1ccco1)B(O)O [Compound 24, (R)-(1-(2-(5-(furan-2-yl)-3-(2-(((3-(trifluoromethyl)phenyl)sulfonyl)oxy)phenyl)-1H-pyrazol-1-yl)acetamido)-3-methylbutyl)boronic acid] | 1.9 | 66.7 | 14.9 | 97 | 4.9 | 97.1 |  |  |  |  |  | 
CC(C)C[C@H](NC(=O)Cn1nc(-c2ccccc2OS(=O)(=O)c2cccc(C(F)(F)F)c2)cc1-c1cccs1)B(O)O [Compound 25, (R)-(3-methyl-1-(2-(5-(thiophen-2-yl)-3-(2-(((3-(trifluoromethyl)phenyl)sulfonyl)oxy)phenyl)-1H-pyrazol-1-yl)acetamido)butyl)boronic acid] | 6.2 | 71.2 | 10.3 | 97.7 | 5.3 | 97.2 |  |  |  |  |  | 
Cc1cc(-c2cccc(NS(=O)(=O)c3cccc(C(F)(F)F)c3)c2)nn1CC(=O)N[C@@H](CC(C)C)B(O)O [Compound 26] |  |  |  |  |  |  | 3.07 | 2.59 | 1.41 |  |  | 
CC(C)C[C@H](NC(=O)Cn1nc(-c2cccc(O)c2)cc1-c1ccccc1)B(O)O [Compound 27, (R)-(1-(2-(3-(3-hydroxyphenyl)-5-phenyl-1H-pyrazol-1-yl)acetamido)3-methylbutyl)boronic acid] |  |  |  |  |  |  |  |  |  | 0.68 | 0.91 | 0.3
CC(C)C[C@H](NC(=O)Cn1nc(-c2cccc(OS(=O)(=O)c3cccc(C(F)(F)F)c3)c2)cc1-c1ccccc1)B(O)O [Compound 28] |  |  |  |  |  |  | 8.68 | 8.25 | 3.41 |  |  | 
CC(C)C[C@H](NC(=O)Cn1nc(-c2cccc(OCCN(C)C)c2)cc1-c1ccccc1)B(O)O [Compound 29, (R)-(1-(2-(3-(3-(2-(dimethylamino)ethoxy)phenyl)-5-phenyl-1H-pyrazol-1-yl)acetamido)-3-methylbutyl)boronic acid hydrochloride] |  |  |  |  |  |  |  |  |  | 3.64 | 1.43 | 0.92
CC(C)C[C@H](NC(=O)Cn1nc(-c2cccc(OCCCN3CCOCC3)c2)cc1-c1ccccc1)B(O)O [Compound 31, (R)-(3-methyl-1-(2-(3-(3-(3-morpholinopropoxy)phenyl)-5-phenyl-1H-pyrazol-1-yl)acetamido)butyl)boronic acid hydrochloride] |  |  |  |  |  |  |  |  |  | 2.19 | 0.69 | 0.5
